Test results reported in PMC8035258 (ChemMedChem, 2021).
Read-outs that look alike come from different tables or passages of the source.

Assays:
[1] = biological target: Mitochondrial respiratory complex II (Mus musculus, UniProt Q8K2B3+Q9CQA3+Q9CXV1+Q9CZB0); test: Complex II inhibition assay; assay type: biochemical; conditions: for inhibition at 100 µM: read-out: % Inhibition CII (100 μM), 100 μM; for inhibition at 100 µM / % Inhibition CII (100 μM): mouse liver mitochondria, mean ±SD of n = 4
[2] = tested on: 22Rv1 prostate cancer cells; test: MTS cytotoxicity assay in 22Rv1 prostate cancer cells; assay type: cell-based; conditions: for reduction of 22Rv1 cell viability: 100 μM, 48 hr treatment, MTS
TNBC MDA-MB-468 cells = test: MTS cytotoxicity assay in MDA-MB-468 cells; assay type: cell-based; conditions: for SI (Selectivity Index): MDA-MB-468 over HEK293 cells; for IC50: read-out: MDA-MB-468 IC50, 72 hours, mean ±SD of n=3
[3] = tested on: low tumorigenic human endothelial kidney (HEK293) cells; test: MTS cytotoxicity assay in HEK293 cells; assay type: cell-based; conditions: read-out: HEK293 IC50

Mitochondrial respiratory complex II, sequence (Q8K2B3 43-664): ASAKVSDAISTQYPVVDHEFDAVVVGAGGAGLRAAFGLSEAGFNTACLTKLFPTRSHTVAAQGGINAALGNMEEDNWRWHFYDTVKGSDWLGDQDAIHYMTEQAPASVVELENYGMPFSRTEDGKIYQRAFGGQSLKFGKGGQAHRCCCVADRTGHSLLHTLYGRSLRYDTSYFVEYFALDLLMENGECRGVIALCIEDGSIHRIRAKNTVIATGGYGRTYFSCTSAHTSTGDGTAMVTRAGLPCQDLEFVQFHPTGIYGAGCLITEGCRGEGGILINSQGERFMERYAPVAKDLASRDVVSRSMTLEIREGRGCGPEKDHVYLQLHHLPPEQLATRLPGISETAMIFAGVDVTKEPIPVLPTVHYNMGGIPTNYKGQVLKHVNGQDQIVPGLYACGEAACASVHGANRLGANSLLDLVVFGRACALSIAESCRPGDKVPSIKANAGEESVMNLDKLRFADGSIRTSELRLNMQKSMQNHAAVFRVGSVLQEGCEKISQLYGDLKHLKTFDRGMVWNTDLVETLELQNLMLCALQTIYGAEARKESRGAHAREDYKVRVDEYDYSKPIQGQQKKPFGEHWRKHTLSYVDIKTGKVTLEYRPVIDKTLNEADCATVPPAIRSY
Mitochondrial respiratory complex II, sequence (Q9CQA3 31-282): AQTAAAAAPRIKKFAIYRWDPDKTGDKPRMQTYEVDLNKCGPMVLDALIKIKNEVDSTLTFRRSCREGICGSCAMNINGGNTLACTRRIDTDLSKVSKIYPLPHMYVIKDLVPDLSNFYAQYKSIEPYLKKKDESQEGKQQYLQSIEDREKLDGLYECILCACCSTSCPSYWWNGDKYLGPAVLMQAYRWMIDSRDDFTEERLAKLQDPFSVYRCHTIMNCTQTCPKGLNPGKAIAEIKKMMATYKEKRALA
Mitochondrial respiratory complex II, sequence (Q9CZB0 30-169): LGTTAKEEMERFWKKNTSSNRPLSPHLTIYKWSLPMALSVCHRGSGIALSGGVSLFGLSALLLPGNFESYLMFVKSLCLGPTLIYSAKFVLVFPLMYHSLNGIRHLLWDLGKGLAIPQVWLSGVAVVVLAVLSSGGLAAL
Mitochondrial respiratory complex II, sequence (Q9CXV1 57-159): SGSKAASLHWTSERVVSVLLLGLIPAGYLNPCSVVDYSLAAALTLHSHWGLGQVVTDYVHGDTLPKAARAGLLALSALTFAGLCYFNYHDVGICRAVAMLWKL

`O=S1(=O)N=C(NCc2ccc(OC(F)(F)F)cc2)Nc2ccccc21` [Compound 30d, 3-((4-(Trifluoromethoxy)benzyl)amino)-4H-benzo[e][1,2,4]thiadiazine 1,1-dioxide] was tested, and the inhibition at 100 µM [1] was 7 ± 6.2% and the “reduction of 22Rv1 cell viability” value [2] was “approximately 30%”.
`CC(NC1=NS(=O)(=O)c2ccccc2N1)c1ccccc1` (stereo not shown) [Compound 24d, 3-((1-Phenylethyl)amino)-4H-benzo[e][1,2,4]thiadiazine 1,1-dioxide] was tested, and the inhibition at 100 µM [1] was 0%, the “reduction of 22Rv1 cell viability” value [2] was “approximately 30%” and the “SI (Selectivity Index)” value (TNBC MDA-MB-468 cells) was 3.92. The IC50 ([3]; Homo sapiens, HEK293, 72 h) was 48.6 ± 1.7 µM.
In the case of `O=S1(=O)N=C(NCc2ccc(Cl)cc2)Nc2ccc(Br)cc21` [Compound 16c, 7-Bromo-3-((4-chlorobenzyl)amino)-4H-benzo[e][1,2,4]thiadiazine 1,1-dioxide dioxide], the “% Inhibition CII (100 μM)” value [1] is reported as 45 ±5.6%, the IC50 (TNBC MDA-MB-468 cells) is reported as 12.5 ± 0.3 µM and the IC50 ([3]; 72 hours, mean ±SD of n=3) is reported as 43.1 ± 3.2 µM.
In the case of `O=S1(=O)N=C(NCCc2ccccc2)Nc2ccc(Br)cc21` [Compound 18c, 7-Bromo-3-(phenethylamino)-4H-benzo[e][1,2,4]thiadiazine 1,1-dioxide], the inhibition at 100 µM [1] is reported as 37 ± 4.7%, the “SI (Selectivity Index)” value (TNBC MDA-MB-468 cells) is reported as 3.4 and the IC50 ([3]; Homo sapiens, HEK293, 72 h) is reported as 63.1 ± 1.8 µM.
`O=S1(=O)N=C(NCCCc2ccccc2)Nc2ccc(F)cc21` [Compound 23a, 7-Fluoro-3-((3-phenylpropyl)amino)-4H-benzo[e][1,2,4]thiadiazine 1,1-dioxide] was tested, and the inhibition at 100 µM [1] was 14 ± 10.4%, the “SI (Selectivity Index)” value (TNBC MDA-MB-468 cells) was 3.12 and the IC50 ([3]; Homo sapiens, HEK293, 72 h) was 181 ± 7.3 µM.
`COc1ccccc1CNC1=NS(=O)(=O)c2cc(F)ccc2N1` [Compound 26a, 7-Fluoro-3-((2-methoxybenzyl)amino)-4H-benzo[e][1,2,4]thiadiazine 1,1-dioxide] was tested, and the inhibition at 100 µM [1] was 27 ± 5.6%, the “SI (Selectivity Index)” value (TNBC MDA-MB-468 cells) was 3.03 and the IC50 ([3]; Homo sapiens, HEK293, 72 h) was 47.6 ± 2 µM.
For `CC(NC1=NS(=O)(=O)c2cc(Br)ccc2N1)c1ccccc1` (stereo not shown) [Compound 24c, 7-Bromo-3-((1-phenylethyl)amino)-4H-benzo[e][1,2,4]thiadiazine 1,1-dioxide], the IC50 [1] was 79.8 ± 4.1 µM, the inhibition at 100 µM [1] was 55 ± 8.2% and the “reduction of 22Rv1 cell viability” value [2] was 70%. For the same molecule, the IC50 ([2]; Homo sapiens, 22Rv1, read-out: 22Rv1 IC50) was 38.9 ± 3.2 µM, the “SI (Selectivity Index)” value (TNBC MDA-MB-468 cells) was 11 and the IC50 ([3]; Homo sapiens, HEK293, 72 h) was 32.2 ± 1.5 µM.
For `COc1ccccc1CNC1=NS(=O)(=O)c2cc(Br)ccc2N1` [Compound 26c, 7-Bromo-3-((2-methoxybenzyl)amino)-4H-benzo[e][1,2,4]thiadiazine 1,1-dioxide], the inhibition at 100 µM [1] was 44 ± 12.3%, the “SI (Selectivity Index)” value (TNBC MDA-MB-468 cells) was 4 and the IC50 ([3]; Homo sapiens, HEK293, 72 h) was 54.4 ± 4.2 µM.
`O=S1(=O)N=C(NCc2ccc(Cl)cc2)Nc2cc(Cl)ccc21` [Compound 16b, 6-Chloro-3-((4-chlorobenzyl)amino)-4H-benzo[e][1,2,4]thiadiazine 1,1-dioxide] was tested, and the “reduction of 22Rv1 cell viability” value [2] was 10%.
In the case of `O=S1(=O)N=C(NCc2ccc(C(F)(F)F)cc2)Nc2ccc(Br)cc21` [Compound 25c, 7-Bromo-3-((4-(trifluoromethyl)benzyl)amino)-4H-benzo[e][1,2,4]thiadiazine 1,1-dioxide], the “reduction of 22Rv1 cell viability” value [2] is reported as 34% and the IC50 ([3]; Homo sapiens, HEK293, 72 h) is reported as 57.5 ± 4.7 µM.
`O=S1(=O)NC(=S)Nc2ccc(Br)cc21` [Compound 12c, 7-Bromo-3-thioxo-3,4-dihydro-2H-1,2,4-benzothiadiazine 1,1-dioxide] was tested, and the IC50 [1] was 37 ± 2.4 µM, the inhibition at 100 µM [1] was 55 ± 15.2% and the “reduction of 22Rv1 cell viability” value [2] was 16%.
In the case of `O=S1(=O)N=C(NCc2ccc(C(F)(F)F)cc2)Nc2cc(Cl)ccc21` [Compound 25b, 6-Chloro-3-((4-(trifluoromethyl)benzyl)amino)-4Hbenzo[e][1,2,4]thia-d iazine 1,1-dioxide], the “% Inhibition CII (100 μM)” value [1] is reported as 19 ±10.1% and the IC50 (TNBC MDA-MB-468 cells) is reported as 25.1 ± 3.8 µM.
With `O=S1(=O)N=C(NC2CCCC2)Nc2cc(Cl)ccc21` [Compound 22b, 6-Chloro-3-(cyclopentylamino)-4H-benzo[e][1,2,4]thiadiazine 1,1-dioxide] the “reduction of 22Rv1 cell viability” value [2] was 34%.
`O=c1[nH]cc(F)c(=O)[nH]1` [5-Fluorouracil, reference compound] was tested, and the “SI (Selectivity Index)” value (TNBC MDA-MB-468 cells) was 1.03, the “SI (Selectivity Index)” value (TNBC MDA-MB-468 cells; listed as 5-fluorouracil) was 1 and the IC50 ([3]; Homo sapiens, HEK293, 72 h) was 7.06 ± 0.8 µM.
`C=CCNC1=NS(=O)(=O)c2cc(F)ccc2N1` [Compound 32a, 3-(Allylamino)-7-fluoro-4H-benzo[e][1,2,4]thiadiazine 1,1-dioxide] was tested, and the inhibition at 100 µM [1] was 38 ± 7.8% and the “reduction of 22Rv1 cell viability” value [2] was 24%.
`CC(C)C(C)NC1=NS(=O)(=O)c2cc(Br)ccc2N1` (stereo not shown) [Compound 15c, 7-Bromo-3-((3-methylbutan-2-yl)amino)-4Hbenzo[e][1,2,4]thiadiazine 1,1-dioxide] was tested, and the inhibition at 100 µM [1] was 19 ± 10.4%, the “SI (Selectivity Index)” value (TNBC MDA-MB-468 cells) was 1.75 and the IC50 ([3]; Homo sapiens, HEK293, 72 h) was 35.7 ± 1.6 µM.
`O=S1(=O)N=C(NCCc2c[nH]c3ccccc23)Nc2cc(Cl)ccc21` [Compound 36b, 3-((2-(1H-indol-3-yl)ethyl)amino)-6-chloro-4H-benzo[e][1,2,4]thiadiazine 1,1-dioxide] was tested, and the inhibition at 100 µM [1] was 25 ± 19%, the “SI (Selectivity Index)” value (TNBC MDA-MB-468 cells) was 2.66 and the IC50 ([3]; Homo sapiens, HEK293, 72 h) was 41.3 ± 5.2 µM.
For `O=S1(=O)NC(=S)Nc2cc(Cl)ccc21` [Compound 12b, 6-Chloro-3-thioxo-3,4-dihydro-2H-1,2,4-benzothiadiazine 1,1-dioxide], the IC50 [1] was 11.9 ± 3.3 µM, the inhibition at 100 µM [1] was 81 ± 6.9% and the “reduction of 22Rv1 cell viability” value [2] was 12%.
`O=S1(=O)N=C(NCCc2ccc(F)cc2)Nc2ccc(Br)cc21` [Compound 33c, 7-Bromo-3-((4-fluorophenethyl)amino)-4H-benzo[e][1,2,4]thiadiazine 1,1-dioxide] was tested, and the inhibition at 100 µM [1] was 45 ± 17.1%, the “SI (Selectivity Index)” value (TNBC MDA-MB-468 cells) was 2.42 and the IC50 ([3]; Homo sapiens, HEK293, 72 h) was 48.7 ± 12 µM.
In the case of `O=S1(=O)N=C(NCCc2c[nH]c3ccccc23)Nc2ccc(F)cc21` [Compound 36a, 3-((2-(1H-indol-3-yl)ethyl)amino)-7-fluoro-4H-benzo[e][1,2,4]thiadiazine 1,1-dioxide], the inhibition at 100 µM [1] is reported as 17 ± 8.2% and the “reduction of 22Rv1 cell viability” value [2] is reported as 30%.
With `CC(C)C(C)NC1=NS(=O)(=O)c2ccc(Cl)cc2N1` (stereo not shown) [Compound 15b, 6-Chloro-3-((3-methylbutan-2-yl)amino)-4H-benzo[e][1,2,4]thiadiazine 1,1-dioxide] the inhibition at 100 µM [1] was 0%.
In the case of `CSC1=NS(=O)(=O)c2ccccc2N1` [Compound 13d, 3-(Methylthio)-4H-benzo[e][1,2,4]thiadiazine 1,1-dioxide], the inhibition at 100 µM [1] is reported as 4 ± 5.5%.
In the case of `O=C1Nc2ccccc2S(=O)(=O)N1` [Compound 11d, 2H-benzo[e][1,2,4]thiadiazin-3(4H)-one 1,1-dioxide], the inhibition at 100 µM [1] is reported as 0%.
With `CCNC1=NS(=O)(=O)c2ccc(Cl)cc2N1` [Compound 19b, 6-Chloro-3-(ethylamino)-4H-benzo[e][1,2,4]thiadiazine 1,1-dioxide] the inhibition at 100 µM [1] was 0%.
Work on `O=S1(=O)N=C(NCCc2ccccc2)Nc2cc(Cl)ccc21` [Compound 18b, 6-Chloro-3-(phenethylamino)-4H-benzo[e][1,2,4]thiadiazine 1,1-dioxide] yielded an inhibition at 100 µM [1] of 19 ± 22.6%.
With `COc1ccc(CCNC2=NS(=O)(=O)c3cc(F)ccc3N2)cc1` [Compound 39a, 7-Fluoro-3-((4-methoxyphenethyl)amino)-4H-benzo[e][1,2,4]thiadiazine 1,1-dioxide] the inhibition at 100 µM [1] was 18 ± 6.2%, the “SI (Selectivity Index)” value (TNBC MDA-MB-468 cells) was 3.27 and the IC50 ([3]; Homo sapiens, HEK293, 72 h) was 123 ± 21.4 µM.
Molecule `O=S1(=O)N=C(NCCCc2ccccc2)Nc2ccccc21` [Compound 23d, 3-((3-Phenylpropyl)amino)-4H-benzo[e][1,2,4]thiadiazine 1,1-dioxide] has an inhibition at 100 µM [1] of 0%.
